Results published in patent US12378519B2, “Microfluidic model of the blood brain barrier” (EMULATE, Inc., priority 2015, dated 2025).

How the values were obtained:
Assay type in all cases: cell-based, human
iBMEC barrier function = assay: TEER measurement on prototype TEER chips under flow; settings: exposure of the chips to TNFa after flow, FIG. 14A
Procedure: Cells were plated on tall channel PDMS chips equipped with incorporated gold electrodes on each channel (see FIG. 13A). Post seeding of BMECs, transendothelial electrical resistance was measured by connecting the electrodes to an EVOM2 voltohmmeter (see FIG. 13B). […] The “damaged” chip was a failure due to the TEER-Chips being a prototype.
Higher TEER values generally indicate a tighter barrier, which is typically desirable for a blood-brain barrier.

[1] = system: BMECs seeded on a microfluidic device; assay: Paracellular permeability assay with Dextran-FITC on chip; settings: TNF-alpha exposure, FIG. 14B
Procedure: Albumin or Dextran conjugated to a fluorescent probe (e.g., FITC or TRITC) are frequently used to monitor changes in leakage, and thus barrier function. In this case, Dextran-FITC, a green fluorescent molecule of 4 KDa, or sodium fluorescein (a 0.3 KDa molecule), was added to the bottom (“blood side”) channel. Paracellular permeability was calculated by measuring the permeability of the fluorescent molecule on the Top (“brain side”) channel. […] FIG. 14B involves TNF-alpha exposure, but the readout is membrane permeability as measured by Dextran-FITC.

neurons seeded in chip = system: neurons seeded in chip

TNFa
iBMEC barrier function (TEER) (iBMEC barrier function): weakening of barrier function | membrane permeability as measured by Dextran-FITC [1]: increase in permeability

NC1=N[C@H](O)[C@H]2[C@H]3O[C@]4(O)O[C@@H]([C@@H](O)[C@@]2(N1)[C@@H]4O)[C@]3(O)CO [TTX, tetrodotoxin]
neuronal activity (Ca2+ fluxes, dF/F) (neurons seeded in chip): ablates this activity
